Read-outs that look alike come from different tables or passages of the source.
Key:
[1] = target: human TLR8 (Homo sapiens (Human), UniProt Q9NR97); experiment: TLR8 inhibition reporter assay (HEK-Blue cells, SEAP reporter, R848 stimulation);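 also: compounds tested from 0.05 nM to 50 µM, 22 h at 37 °C, SEAP measured with HEK-Blue Detection, inhibition relative to agonist plus DMSO versus a known inhibitor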
[2] = target: human TLR9 (Homo sapiens (Human), UniProt Q9NR96); experiment: TLR9 inhibition reporter assay (HEK-Blue cells, SEAP reporter, ODN2006 stimulation);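 also: compounds tested over 0.05 nM to 50 µM, 22 h incubation, inhibition taken as SEAP signal drop from agonist plus DMSO wells toward a known inhibitor control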
Sequence of human TLR9 (Q9NR96 26-1032): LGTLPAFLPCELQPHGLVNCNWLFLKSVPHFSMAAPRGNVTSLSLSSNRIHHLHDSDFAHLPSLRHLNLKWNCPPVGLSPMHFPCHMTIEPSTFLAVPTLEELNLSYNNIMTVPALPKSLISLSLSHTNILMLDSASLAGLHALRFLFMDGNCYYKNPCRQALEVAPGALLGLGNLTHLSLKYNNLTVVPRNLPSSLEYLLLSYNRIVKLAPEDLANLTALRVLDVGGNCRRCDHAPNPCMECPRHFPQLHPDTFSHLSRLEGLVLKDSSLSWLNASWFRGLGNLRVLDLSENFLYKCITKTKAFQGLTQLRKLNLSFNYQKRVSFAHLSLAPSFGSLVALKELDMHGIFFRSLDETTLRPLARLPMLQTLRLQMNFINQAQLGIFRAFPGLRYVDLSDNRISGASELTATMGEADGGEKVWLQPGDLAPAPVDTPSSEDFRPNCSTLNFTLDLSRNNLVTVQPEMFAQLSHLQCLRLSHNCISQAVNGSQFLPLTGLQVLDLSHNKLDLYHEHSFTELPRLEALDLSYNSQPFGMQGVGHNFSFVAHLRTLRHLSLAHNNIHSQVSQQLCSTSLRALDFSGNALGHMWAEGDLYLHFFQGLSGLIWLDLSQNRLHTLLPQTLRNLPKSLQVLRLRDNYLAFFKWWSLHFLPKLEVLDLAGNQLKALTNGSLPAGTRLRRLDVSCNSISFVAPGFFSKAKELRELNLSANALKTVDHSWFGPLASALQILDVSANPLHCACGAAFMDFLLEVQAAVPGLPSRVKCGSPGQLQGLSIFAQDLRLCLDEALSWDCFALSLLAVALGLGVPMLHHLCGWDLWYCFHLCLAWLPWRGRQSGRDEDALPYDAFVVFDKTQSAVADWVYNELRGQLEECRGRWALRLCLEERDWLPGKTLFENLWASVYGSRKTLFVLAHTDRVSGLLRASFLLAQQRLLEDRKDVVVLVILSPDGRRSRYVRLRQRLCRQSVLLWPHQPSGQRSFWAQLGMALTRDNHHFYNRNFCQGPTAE

[3] = target: human TLR7 (Homo sapiens (Human), UniProt Q9NYK1); experiment: TLR7 inhibition reporter assay (HEK-Blue cells, SEAP reporter, gardiquimod stimulation); format: cell-based
Sequence of human TLR7 (Q9NYK1 27-1049): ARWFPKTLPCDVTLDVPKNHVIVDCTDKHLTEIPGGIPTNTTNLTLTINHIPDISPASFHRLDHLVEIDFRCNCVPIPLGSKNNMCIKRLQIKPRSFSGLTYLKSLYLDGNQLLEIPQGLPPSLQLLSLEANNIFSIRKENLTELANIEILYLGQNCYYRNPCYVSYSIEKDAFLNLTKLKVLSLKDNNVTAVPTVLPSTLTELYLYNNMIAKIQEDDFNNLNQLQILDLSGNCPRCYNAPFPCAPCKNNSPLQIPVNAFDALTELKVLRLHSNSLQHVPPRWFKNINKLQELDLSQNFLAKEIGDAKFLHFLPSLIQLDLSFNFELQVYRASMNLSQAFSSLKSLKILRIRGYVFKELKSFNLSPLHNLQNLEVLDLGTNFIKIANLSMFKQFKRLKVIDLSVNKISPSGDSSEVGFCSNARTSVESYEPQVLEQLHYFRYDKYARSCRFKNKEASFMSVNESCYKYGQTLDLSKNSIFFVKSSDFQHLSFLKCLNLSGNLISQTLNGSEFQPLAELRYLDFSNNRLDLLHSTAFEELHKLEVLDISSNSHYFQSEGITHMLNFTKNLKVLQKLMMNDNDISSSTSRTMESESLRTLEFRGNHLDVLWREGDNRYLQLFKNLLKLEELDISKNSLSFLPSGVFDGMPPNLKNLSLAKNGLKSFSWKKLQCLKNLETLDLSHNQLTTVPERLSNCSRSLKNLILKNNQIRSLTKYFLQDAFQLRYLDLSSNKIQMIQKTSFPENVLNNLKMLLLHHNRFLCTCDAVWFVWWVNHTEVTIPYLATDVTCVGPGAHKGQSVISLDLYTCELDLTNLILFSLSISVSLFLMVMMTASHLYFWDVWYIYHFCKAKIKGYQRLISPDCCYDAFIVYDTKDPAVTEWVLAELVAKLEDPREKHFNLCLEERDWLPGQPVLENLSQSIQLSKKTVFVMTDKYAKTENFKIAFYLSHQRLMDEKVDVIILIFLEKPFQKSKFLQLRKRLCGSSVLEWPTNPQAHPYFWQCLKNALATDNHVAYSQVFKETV

[4] = read-out: TLR8 IC50, HEK-Blue cells overexpressing human TLR8, R848 15.9 μM
[5] = read-out: TLR9 IC50, HEK-Blue cells overexpressing human TLR9, ODN2006 5 nM
[6] = HEK-Blue cells overexpressing human TLR7, gardiquimod 7.5 μM
[7] = read-out: TLR8 IC50, HEK-Blue cells, R848 15.9 μM
[8] = read-out: TLR9 IC50, HEK-Blue cells, ODN2006 5 nM
[9] = HEK-Blue cells, gardiquimod 7.5 μM

Sequence of human TLR8 (Q9NR97 27-1041): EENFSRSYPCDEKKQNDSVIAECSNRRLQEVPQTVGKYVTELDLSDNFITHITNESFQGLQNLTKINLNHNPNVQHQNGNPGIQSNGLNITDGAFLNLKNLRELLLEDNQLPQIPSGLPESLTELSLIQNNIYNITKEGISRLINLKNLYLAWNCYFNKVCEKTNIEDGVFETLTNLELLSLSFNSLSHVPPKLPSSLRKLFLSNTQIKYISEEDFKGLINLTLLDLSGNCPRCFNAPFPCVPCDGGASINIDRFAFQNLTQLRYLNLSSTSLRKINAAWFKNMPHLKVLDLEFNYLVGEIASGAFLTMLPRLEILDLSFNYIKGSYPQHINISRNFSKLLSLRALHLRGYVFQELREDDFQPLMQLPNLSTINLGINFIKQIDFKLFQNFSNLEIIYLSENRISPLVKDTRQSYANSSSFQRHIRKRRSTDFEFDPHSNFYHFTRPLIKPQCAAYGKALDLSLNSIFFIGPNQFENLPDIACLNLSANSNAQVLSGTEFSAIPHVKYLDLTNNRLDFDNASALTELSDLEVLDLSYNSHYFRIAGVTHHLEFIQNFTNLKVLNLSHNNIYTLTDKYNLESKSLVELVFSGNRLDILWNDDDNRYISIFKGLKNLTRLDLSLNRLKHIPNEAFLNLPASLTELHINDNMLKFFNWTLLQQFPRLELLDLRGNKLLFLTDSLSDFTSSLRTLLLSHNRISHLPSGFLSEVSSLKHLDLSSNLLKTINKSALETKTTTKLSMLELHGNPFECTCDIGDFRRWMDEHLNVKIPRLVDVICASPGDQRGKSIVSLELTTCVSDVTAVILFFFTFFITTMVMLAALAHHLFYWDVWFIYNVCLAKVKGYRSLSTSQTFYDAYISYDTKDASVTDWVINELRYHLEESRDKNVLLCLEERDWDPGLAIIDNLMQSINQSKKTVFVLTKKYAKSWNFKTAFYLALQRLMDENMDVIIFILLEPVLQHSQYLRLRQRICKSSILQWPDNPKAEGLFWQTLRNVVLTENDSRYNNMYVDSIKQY

IC50 [1, 4] [nM] | IC50 [2, 5] [nM] | IC50 [3, 6] [nM] | IC50 [1, 7] [nM] | IC50 [2, 8] [nM] | IC50 [3, 9] [nM] | IC50 ([1]; TLR8 IC50, HEK-Blue cells overexpressing human TLR8, R848 15.9 μM) [nM] | IC50 ([2]; TLR9 IC50, HEK-Blue cells overexpressing human TLR9, ODN2006 5 nM) [nM] | SMILES
24.7 | 102 | 10.5 | – | – | – | – | – | CCc1c(-c2cc(C)nc(C)c2)[nH]c2ccc(C3CCN(CC(=O)N(C)C)CC3)cc12 [Example 526, 2-(4-(2-(2,6-dimethylpyridin-4-yl)-3-ethyl-1H-indol-5-yl)piperidin-1-yl)-N,N-dimethylacetamide]
23.7 | 943 | 12.9 | – | – | – | – | – | Cc1cc(-c2[nH]c3ccc(C4CCN(C(=O)CN5CCCC(C)(C)C5)CC4)cc3c2C(C)C)cc(C)n1 [Example 358, 2-(3,3-dimethylpiperidin-1-yl)-1-(4-(2-(2,6-dimethylpyridin-4-yl)-3-isopropyl-1H-indol-5-yl)piperidin-1-yl)ethan-1-one]
110 | 354 | 156 | – | – | – | – | – | CCc1c(-c2ccnc(N)c2)[nH]c2ccc([C@@H]3CCNC[C@@H]3F)cc12 [491-A]
10.1 | 394 | 1.9 | – | – | – | – | – | Cc1cc(-c2[nH]c3ccc(C4CCN(C(=O)CCn5ccnc5C)CC4)cc3c2C(C)C)cc(C)n1 [Example 124, 1-(4-(2-(2,6-dimethylpyridin-4-yl)-3-isopropyl-1H-indol-5-yl)piperidin-1-yl)-3-(2-methyl-1H-imidazol-1-yl)propan-1-one]
– | – | – | 114 | 42 | 533 | – | – | Cc1cc(-c2[nH]c3ccc(C4CCN(C5CCN(C(C)C)CC5)CC4)cc3c2C)cc(C)n1 [Example 813, 2-(2,6-dimethylpyridin-4-yl)-5-(1′-isopropyl-[1,4′-bipiperidin]-4-yl)-3-methyl-1H-indole]
1030 | 1030 | 4190 | – | – | – | – | – | CCc1c(-c2ccnc(NC(C)=O)c2)[nH]c2ccc(C3CCNCC3)cc12 [Example 68, N-(4-(3-ethyl-5-(piperidin-4-yl)-1H-indol-2-yl)pyridin-2-yl)acetamide]
80.1 | 6560 | 202 | – | – | – | – | – | Cc1cc(-c2[nH]c3ccc(C4CCN(C(=O)[C@@H](N)CCCNC(N)=O)CC4)cc3c2C(C)C)ccn1 [Example 564, (S)-1-(4-amino-5-(4-(3-isopropyl-2-(2-methylpyridin-4-yl)-1H-indol-5-yl)piperidin-1-yl)-5-oxopentyl)urea]
– | – | – | 120 | > 50000 | 5.1 | – | – | Cc1cc(-c2[nH]c3ccc(C4CCN(C=O)CC4)cc3c2C(C)C)cc(C)n1 [Example 862, 4-(2-(2,6-dimethylpyridin-4-yl)-3-isopropyl-1H-indol-5-yl)piperidine-1-carbaldehyde]
13.8 | 331 | 7.1 | – | – | – | – | – | Cc1cc(-c2[nH]c3ccc(C4CCN(CC(=O)NC5CCC5)CC4)cc3c2C(C)C)cc(C)n1 [Example 213, N-cyclobutyl-2-(4-(2-(2,6-dimethylpyridin-4-yl)-3-isopropyl-1H-indol-5-yl)piperidin-1-yl) acetamide]
731 | > 50000 | 220 | – | – | – | – | – | Cc1cc(-c2[nH]c3ccc(C4CCN(S(=O)(=O)Cc5ccccc5)CC4)cc3c2C(C)C)ccn1 [Example 556, 5-(1-(benzylsulfonyl)piperidin-4-yl)-3-isopropyl-2-(2-methylpyridin-4-yl)-1H-indole]
32.3 | 8790 | 97 | – | – | – | – | – | Cc1cnccc1-c1[nH]c2ccc(C3CCNCC3)cc2c1C(C)C [Example 23, 3-isopropyl-2-(3-methylpyridin-4-yl)-5-(piperidin-4-yl)-1H-indole]
3680 | 3990 | 4070 | – | – | – | – | – | Cc1cc(-c2[nH]c3ccc(C4CCNCC4)cc3c2C(C)C)c(C#N)c(NCC2CC2)n1 [Example 32, 2-((cyclopropylmethyl)amino)-4-(3-isopropyl-5-(piperidin-4-yl)-1H-indol-2-yl)-6-methylnicotinonitrile]
1.7 | 2720 | 7.5 | – | – | – | – | – | Cc1cc(-c2[nH]c3ccc(C4CCN(Cc5ccn[nH]5)CC4)cc3c2C(C)C)c(F)cn1 [Example 682, 5-(1-((1H-pyrazol-5-yl)methyl)piperidin-4-yl)-2-(5-fluoro-2-methylpyridin-4-yl)-3-isopropyl-1H-indole]
4.4 | 4160 | 13.9 | – | – | – | – | – | CNC(=O)CN1CCC(c2ccc3[nH]c(-c4cc(C)ncc4C)c(C(C)C)c3c2)CC1 [Example 653, 2-(4-(2-(2,5-dimethylpyridin-4-yl)-3-isopropyl-1H-indol-5-yl)piperidin-1-yl)-N-methylacetamide]
2.5 | 897 | 52.7 | – | – | – | – | – | Cc1cc(-c2[nH]c3ccc(C4CCNCC4)cc3c2C(C)C)c(CO)cn1 [Example 42, (4-(3-isopropyl-5-(piperidin-4-yl)-1H-indol-2-yl)-6-methylpyridin-3-yl)methanol]
187 | 18600 | 29.9 | – | – | – | – | – | Cc1cc(-c2[nH]c3ccc(C4CCN(C(=O)Cn5ccc(C(F)(F)F)n5)CC4)cc3c2C(C)C)cc(C)n1 [Example 156, 1-(4-(2-(2,6-dimethylpyridin-4-yl)-3-isopropyl-1H-indol-5-yl)piperidin-1-yl)-2-(3-(trifluoromethyl)-1H-pyrazol-1-yl)ethan-1-one]
50 | > 50000 | 22.3 | – | – | – | – | – | Cc1cc(-c2[nH]c3ccc(C4CCN(Cc5ncon5)CC4)cc3c2C(C)C)c(F)cn1 [Example 735, 3-((4-(2-(5-fluoro-2-methylpyridin-4-yl)-3-isopropyl-1H-indol-5-yl)piperidin-1-yl)methyl)-1,2,4-oxadiazole]
4.7 | 147 | 7 | – | – | – | – | – | Cc1cc(-c2[nH]c3ccc(C4CCN(CC5CCN(C(C)C)C5)CC4)cc3c2C(C)C)cc(C)n1 (stereo not drawn) [Example 465, 2-(2,6-dimethylpyridin-4-yl)-3-isopropyl-5-(1-((1-isopropylpyrrolidin-3-yl)methyl)piperidin-4-yl)-1H-indole]
114 | 199 | 231 | – | – | – | – | – | CNCCN1CCC(c2ccc3[nH]c(-c4ccnc(C(=O)OC)c4)c(C)c3c2)CC1 [Example 752, methyl 4-(3-methyl-5-(1-(2-(methylamino)ethyl)piperidin-4-yl)-1H-indol-2-yl) picolinate]
5 | 340 | 23 | – | – | – | – | – | Cc1cc(-c2[nH]c3ccc(C4CCN(C5CCN(C(C)C)CC5F)CC4)cc3c2C(C)C)ccn1 (stereo not drawn) [Example 706, 5-(3′-fluoro-1′-isopropyl-[1,4′-bipiperidin]-4-yl)-3-isopropyl-2-(2-methylpyridin-4-yl)-1H-indole]
73.4 | 41300 | 5.5 | – | – | – | – | – | Cc1cc(-c2[nH]c3ccc(C4CCN(C(=O)CN(C)CC(F)F)CC4)cc3c2C(C)C)cc(C)n1 [Example 422, 2-((2,2-difluoroethyl)(methyl)amino)-1-(4-(2-(2,6-dimethylpyridin-4-yl)-3-isopropyl-1H-indol-5-yl)piperidin-1-yl) ethan-1-one]
83.5 | 177 | 84.5 | – | – | – | – | – | CCc1c(-c2ccnc(C)c2)[nH]c2ccc(C3CCN(C(=O)C4CCNCC4)CC3)cc12 [Example 625, (4-(3-ethyl-2-(2-methylpyridin-4-yl)-1H-indol-5-yl)piperidin-1-yl)(piperidin-4-yl)methanone]
82.5 | 2900 | 51 | – | – | – | – | – | COc1cc(-c2[nH]c3ccc(C4CCN(C5CCOCC5)CC4)cc3c2C(C)C)ccn1 [Example 720, 3-isopropyl-2-(2-methoxypyridin-4-yl)-5-(1-(tetrahydro-2H-pyran-4-yl)piperidin-4-yl)-1H-indole]
4.2 | 609 | 9.1 | – | – | – | – | – | Cc1cc(-c2[nH]c3ccc(C4CCN(Cc5ccncc5)CC4)cc3c2C(C)C)cc(C)n1 [Example 435, 2-(2,6-dimethylpyridin-4-yl)-3-isopropyl-5-(1-(pyridin-4-ylmethyl)piperidin-4-yl)-1H-indole]
– | – | – | 4.7 | 312 | 3.8 | – | – | Cc1cc(-c2[nH]c3ccc(C4CCN(CC(O)C(C)(C)C)CC4)cc3c2C(C)C)cc(C)n1 (stereo not drawn) [Example 850, 1-(4-(2-(2,6-dimethylpyridin-4-yl)-3-isopropyl-1H-indol-5-yl)piperidin-1-yl)-3,3-dimethylbutan-2-ol]
62.9 | 17200 | 5.7 | – | – | – | – | – | CNC(=O)C(=O)N1CCC(c2ccc3[nH]c(-c4cc(C)nc(C)c4)c(C(C)C)c3c2)CC1 [Example 204, 2-(4-(2-(2,6-dimethylpyridin-4-yl)-3-isopropyl-1H-indol-5-yl)piperidin-1-yl)-N-methyl-2-oxoacetamide]
– | – | 6.5 | – | – | – | 22.9 | 854 | Cc1cc(-c2[nH]c3ccc(C4CCN(C(=O)CNCC5(C)CC5)CC4)cc3c2C(C)C)cc(C)n1 [Example 365, 1-(4-(2-(2,6-dimethylpyridin-4-yl)-3-isopropyl-1H-indol-5-yl)piperidin-1-yl)-2-(((1-methylcyclopropyl)methyl)amino)ethan-1-one]
14 | 1390 | 5.4 | – | – | – | – | – | Cc1cc(-c2[nH]c3ccc(C4CCN(CC#N)CC4)cc3c2C(C)C)cc(C)n1 [Example 312, 2-(4-(2-(2,6-dimethylpyridin-4-yl)-3-isopropyl-1H-indol-5-yl)piperidin-1-yl)acetonitrile]

SMILES | IC50 [1, 4] [nM] | IC50 [2, 5] [nM] | IC50 [3, 6] [nM] | IC50 [1, 7] [nM] | IC50 [2, 8] [nM] | IC50 [3, 9] [nM] | IC50 ([1]; TLR8 IC50, HEK-Blue cells overexpressing human TLR8, R848 15.9 μM) [nM] | IC50 ([2]; TLR9 IC50, HEK-Blue cells overexpressing human TLR9, ODN2006 5 nM) [nM]
COC(=O)N1CCC(c2ccc3[nH]c(-c4ccnc(C)c4)c(C(C)C)c3c2)CC1 [Example 562, methyl 4-(3-isopropyl-2-(2-methylpyridin-4-yl)-1H-indol-5-yl) piperidine-1-carboxylate] | 1400 | > 50000 | 287 | – | – | – | – | –

Source: patent US10660877B2 (BRISTOL-MYERS SQUIBB COMPANY, priority 2016, dated 2020)
